In patent US20220119376A1, “TRICYCLIC COMPOUNDS ACTING ON CRBN PROTEINS” (CHIA TAI TIANQING PHARMACEUTICAL GROUP CO., LTD., priority 2018, published 2022):
pIC50: −log10 of the molar value. Where a name gives a salt, the structure may show the parent alone.

What was measured:
MM.1S = experiment: Antiproliferative effect in multiple myeloma cell line MM.1S (CellTiter-Glo); format: cell-based; settings: Homo sapiens, MM1.S, 120 h, MM.1S cells, 5 days of compound co-incubation
Procedure: (§1) Periodical passaging was performed, and cells in logarithmic growth phase were taken for plating. • (1) Cells were stained with trypan blue and viable cells were counted. • (2) The cell concentration was adjusted to an appropriate level. [table] • (3) 90 μL of cell suspension was added to each well in the culture plate and cell-free medium was added to the blank control wells according to the table above. • (4) The culture plate was incubated overnight in an incubator at 37° C./5% CO2 and 100% relative humidity. […] It was prepared freshly prior to use. […] After the compound or DMSO was added, the mixture was pipetted and mixed well. […] 10 μL of DMSO-cell culture mixture was added to the vehicle control and blank control wells. […] The following procedure was performed according to the instructions of Promega CellTiter-Glo luminescence cell viability assay kit (Promega-G7573). […] The cell plate was wrapped with aluminum foil to keep out of light. (7) The plate was shaken on an orbital shaker for 2 min to induce cell lysis. (8) The culture plate was placed at room temperature for 10 min to stabilize the luminescence signals. (9) The luminescence signals were detected on 2104 EnVision plate reader. […] Inhibition rates of compounds at different concentrations were calculated in Excel, followed by plotting the inhibition curves and calculating relevant parameters including minimum inhibition rate (%), maximum inhibition rate (%) and IC50 using GraphPad Prism software.

[1] = Pharmacokinetic evaluation of compounds in mice; settings: male, C57BL, mouse, in vivo
Text: (§2) The test animals in the study were C57BL male mice, and the LC/MS/MS method was used to quantitatively determine the drug concentration in the plasma of the mice at different time points after intravenous injection or oral administration of the test compounds and the reference compound, thus evaluating the pharmacokinetic characteristics of the test drugs in the mice.
C57Balb/C (C57) mice (male, 20-30 g, 7-10 weeks old, Beijing Vital River or Shanghai SLAC).
Clear or suspended solution of the test compound was injected into C57 mice (overnight fasting) via the tail vein or administered intragastrically to C57 mice (overnight fasting). For intravenous injection, […] of blood was each collected by jugular vein puncture at 0 h (before injection) and 0.0833 h, 0.25 h, 0.5 h, 1 h, 2 h, 4 h, 6 h, 8 h and 24 h (after injection), and then placed in an anticoagulation tube added with EDTA-K2 (Jiangsu KANGJIAN Medical Apparatus Co., Ltd.), and the mixture was thoroughly vortex-mixed at 4° C. and centrifuged at 13000 rpm for 10 min; for intragastric administration, blood was collected by jugular vein puncture at 0 h (before administration) and 0.5 h, 1 h, 2 h, 4 h, 6 h, 8 h and 24 h (after administration), and then placed in an anticoagulation tube added with EDTA-K2 (Jiangsu KANGJIAN Medical Apparatus Co., Ltd.), and the mixture was thoroughly vortex-mixed and centrifuged at 13000 rpm for 10 min. The plasma concentration was measured by LC-MS/MS method, and the relevant pharmacokinetic parameters were calculated by WinNonlin™ Version 6.3 (Pharsight, Mountain View, Calif.) pharmacokinetic software using non-compartmental model linear logarithmic trapezoid method.

[2] = Pharmacokinetic evaluation of compounds in rats; format: in vivo, SD male rats; settings: for clearance / half-life / bioavailability: male, Sprague Dawley, rat, plasma; for bioavailability: oral, intragastric administration 10 mg/kg vs intravenous 2 mg/kg, read-out: Bioavailability F
Text: as §2, with “SD” for “C57BL”, “rats,” for “mice,”, “rats” for “mice”, “rats.” for “mice.”
Sprague Dawley (SD) rats (male, 200-300 g, 7-10 weeks old, Beijing Vital River or Shanghai SLAC).
Clear solution of the test compound was injected into SD rats (overnight fasting) via the tail vein or administered intragastrically to SD rats (overnight fasting). For intravenous injection, 200 μL of blood was each collected by jugular vein puncture at 0 h (before injection) and 0.0833 h, 0.25 h, 0.5 h, 1 h, 2 h, 4 h, 6 h, 8 h and 24 h (after injection), and then placed in an anticoagulation tube added with EDTA-K2 (Jiangsu KANGJIAN Medical Apparatus Co., Ltd.), and the mixture was thoroughly vortex-mixed at 4° C. and centrifuged at 13000 rpm for 10 min; for intragastric administration, blood was collected by jugular veinpuncture at 0 h (before administration) and 0.5 h, 1 h, 2 h, 4 h, 6 h, 8 h and 24 h (after administration), and then placed in an anticoagulation tube added with EDTA-K2 (Jiangsu KANGJIAN Medical Apparatus Co., Ltd.), and the mixture was thoroughly vortex-mixed and centrifuged at 13000 rpm for 10 min. The plasma concentration was measured by LC-MS/MS method, and the relevant pharmacokinetic parameters were calculated by WinNonlin™ Version 6.3 (Pharsight, Mountain View, Calif.) pharmacokinetic software using non-compartmental model linear logarithmic trapezoid method.

NCI-H929 = experiment: Antiproliferative effect in myeloma cell line NCI-H929 (CellTiter-Glo); format: cell-based; settings: Homo sapiens, 120 h, NCI-H929 cells, 5 days of compound co-incubation
Procedure: as §1

[3] = test system: human myeloma MM.1S cells; experiment: In vivo pharmacodynamic study in subcutaneous xenograft tumor CB-17 SCID model of human myeloma MM.1S cells; design: species or system CB-17 SCID mice; settings: for Tumor volume (Day 0): Day 0 (baseline at grouping), 5 mg/kg oral twice daily; for Tumor volume (Day 24) / TGI (Day 24): Day 24, 5 mg/kg oral twice daily; for TGI (Day 24): tumor growth inhibition vs vehicle control
Procedure: Cell culturing: human multiple myeloma cells MM.1S (ATCC® CRL-2974™) were cultured in vitro, in a semi-suspension manner, with an ATCC-formulated RPMI-1640 medium containing 10% fetal calf serum, 100 U/mL penicillin and 100 μg/mL streptomycin in an incubator at 37° C./5% CO2. Passages were performed twice a week.
At a required number, the cells were taken, counted and inoculated.
Animals: CB-17 SCID mice, female, 6-8 weeks old, weight of 18-20 g.
0.2 mL (5×10^6 cells) of MM.1S cells (along with matrigel in a volume ratio of 1:1) was subcutaneously inoculated on the right back of each mouse, and the mice were divided into groups for administration after the mean tumor volume was approximately 130 mm^3. Seven days constitute an administration cycle, twice daily with a 12 h interval, and the test compound was orally administered for a total of four cycles. Test compounds WX009 and WX023 were administered at a dose of 5 mg/kg, tumor volume was measured twice weekly with a two-dimensional caliper, and the volume was measured in cubic millimeters and calculated according to the following formula: V=0.5 a×b2 where a and b are the long and short diameters, respectively, of the tumor. Anti-tumor efficacy was determined by dividing the mean tumor increase volume of compound-treated animals by the mean tumor increase volume of untreated animals.

[4] = intragastric administration 10 mg/kg

**Q.** With `O=C1CCC(c2noc3ccc4cc(OCCN5CCCC5)ccc4c23)C(=O)N1` (stereo not drawn) [WX027] as the compound, how does the pIC50 (MM.1S) read?
**A.** 8.47

**Q.** With `O=C1CCC(c2noc3ccc4cc(OCCN5CCOCC5)ccc4c23)C(=O)N1` (stereo not drawn) [WX023] as the compound, how does the bioavailability [1] read?
**A.** 100%

**Q.** What about the “Area under plasma concentration-time curve (0-inf)” value (“Area” below) ([1]; iv, 2 mg/kg) of the same compound?
**A.** 6.87 µM·h

**Q.** And the clearance ([1]; iv, 2 mg/kg)?
**A.** 11.8 mL/min/kg

**Q.** And the half-life ([1]; iv, 2 mg/kg)?
**A.** 3.37 h

**Q.** And the “Area” value ([1]; po, 10 mg/kg)?
**A.** 34.40 µM·h

**Q.** And the Peak concentration ([1]; po, 10 mg/kg)?
**A.** 17.50 µM

**Q.** What about the Time to peak ([1]; po, 10 mg/kg) of the same compound?
**A.** 0.25 h

**Q.** What about the “Area” value [2, 4] of the same compound?
**A.** 19.69 µM·h

**Q.** And the Peak concentration [2, 4]?
**A.** 3.08 µM

**Q.** And the Time to peak [2, 4]?
**A.** 0.75 h

**Q.** And the “Area” value ([2]; intravenous injection 2 mg/kg)?
**A.** 3.76 µM·h

**Q.** What about the clearance ([2]; intravenous injection 2 mg/kg) of the same compound?
**A.** 21.7 mL/min/kg

**Q.** And the half-life ([2]; intravenous injection 2 mg/kg)?
**A.** 1.24 h

**Q.** What about the bioavailability [2] of the same compound?
**A.** 73.7%

**Q.** And the pIC50 (NCI-H929)?
**A.** 7.99

**Q.** And the “Tumor volume (Day 0)” value [3]?
**A.** 130 ± 8 mm^3

**Q.** And the “Tumor volume (Day 24)” value [3]?
**A.** 15 ± 4 mm^3

**Q.** And the “TGI (Day 24)” value [3]?
**A.** 105%

**Q.** What about the pIC50 (MM.1S) of the same compound?
**A.** 8.19

**Q.** With `O=C1CCC(c2noc3ccc4ccccc4c23)C(=O)N1` (stereo not drawn) [WX004] as the compound, how does the pIC50 (NCI-H929) read?
**A.** 7.67

**Q.** And the pIC50 (MM.1S)?
**A.** 8.18

**Q.** With `O=C1CCC(c2noc3ccc4cc(OCCNC5CCOCC5)ccc4c23)C(=O)N1` (stereo not drawn) [Hydrochloride of WX039] as the compound, how does the pIC50 (MM.1S) read?
**A.** 8.59

**Q.** With `O=C1CCC(c2noc3ccc4cc(CO)ccc4c23)C(=O)N1` (stereo not drawn) [WX061] as the compound, how does the pIC50 (MM.1S) read?
**A.** 8.47

**Q.** With `COc1ccc2c(ccc3onc(C4CCC(=O)NC4=O)c32)c1` (stereo not drawn) [WX013] as the compound, how does the pIC50 (MM.1S) read?
**A.** 8.35

**Q.** With `O=C1CCC(c2noc3cc4occc4cc23)C(=O)N1` (stereo not drawn) [WX005] as the compound, how does the pIC50 (NCI-H929) read?
**A.** 7.72

**Q.** With `CN(C)CCOc1ccc2c(ccc3onc(C4CCC(=O)NC4=O)c32)c1` (stereo not drawn) [WX015] as the compound, how does the pIC50 (MM.1S) read?
**A.** 8.42

**Q.** With `O=C1CCC(c2noc3ccc4ccoc4c23)C(=O)N1` (stereo not drawn) [WX006] as the compound, how does the pIC50 (MM.1S) read?
**A.** 8.70

**Q.** With `O=C1CCC(c2noc3ccc4[nH]ccc4c23)C(=O)N1` (stereo not drawn) [WX009] as the compound, how does the “Area” value ([1]; iv, 2 mg/kg) read?
**A.** 5.34 µM·h

**Q.** What about the “Area” value ([1]; po, 10 mg/kg) of the same compound?
**A.** 12.29 µM·h

**Q.** And the Peak concentration ([1]; po, 10 mg/kg)?
**A.** 10.52 µM

**Q.** And the Time to peak ([1]; po, 10 mg/kg)?
**A.** 0.25 h

**Q.** What about the half-life ([1]; mice, intravenous injection 2 mg/kg, read-out: Half life (converted)) of the same compound?
**A.** 0.89 h

**Q.** What about the clearance ([1]; mice, intravenous injection 2 mg/kg, read-out: Plasma clearance) of the same compound?
**A.** 23.2 mL/min/kg

**Q.** What about the bioavailability ([1]; mice, oral administration 10 mg/kg vs intravenous 2 mg/kg, read-out: Bioavailability F) of the same compound?
**A.** 46.1%

**Q.** What about the “Area” value [2, 4] of the same compound?
**A.** 26.34 µM·h

**Q.** What about the Peak concentration [2, 4] of the same compound?
**A.** 12.75 µM

**Q.** And the Time to peak [2, 4]?
**A.** 0.50 h

**Q.** And the “Area” value ([2]; intravenous injection 2 mg/kg)?
**A.** 7.92 µM·h

**Q.** And the clearance ([2]; intravenous injection 2 mg/kg)?
**A.** 15.9 mL/min/kg

**Q.** What about the half-life ([2]; intravenous injection 2 mg/kg) of the same compound?
**A.** 0.9 h

**Q.** And the bioavailability [2]?
**A.** 66.5%

**Q.** What about the “Tumor volume (Day 0)” value [3] of the same compound?
**A.** 131 ± 12 mm^3

**Q.** What about the “Tumor volume (Day 24)” value [3] of the same compound?
**A.** 14 ± 5 mm^3

**Q.** And the “TGI (Day 24)” value [3]?
**A.** 105%
